18 molecules from US20220340598A1, “PYRAZOLOPYRIDINONE COMPOUNDS” (Janssen Pharmaceutica NV, priority 2017, published 2022) can be followed below.

Where a name gives a salt, the structure may show the parent alone.

In assay [1] the target is T1, NIH/3T3 cells overexpressing FGFR3 WT-TACC3 fusion protein (Homo sapiens, UniProt P22607).
T1 construct: fused on or other part: Q9Y6A5 (Transforming acidic coiled-coil-containing protein 3)
As to the kind of experiment: NIH/3T3 FGFR3 WT-TACC3 cell proliferation assay. The note with it: 72-hr incubation, CellTiter Glo; read-out: NIH/3T3 FGFR3 WT-TACC3 CTG (IC50). The class given is cell-based. As for the experimental part:
NIH/3T3 FGFR3 WT-TACC3 Cell Proliferation Assay
(§1) In day 1, 90 μL of cell suspension (NIH/3T3 cells overexpressing FGFR3 WT-TACC3 fusion protein) (total 30,000 cells per well in growth medium (DMEM containing 1% Glutamax, 10% FBS and 1% Pen/Strep)) was seeded in a 96-well plate and then incubated overnight at 37° C. and 5% CO2. In day 2, 10 μL of growth medium containing 10-fold stock solution of testing compound was added into cell cultures (9 dose points with 4× serial dilution, starting with 10 μM, 0.1% DMSO final). After 72-hr incubation at 37° C. and 5% CO2, in day 5 a volume of 50 μL CellTiter Glo (CTG) reagent was added into cell-containing 96-well plate and the plate was incubated at room temperature for 10 minutes before RLUs (relative light unit) were measured on a microplate reader with luminescence detection module. The RLU value was normalized to survival % and concentration-response curve was plotted using Prism to calculate IC50 (M), pIC50 (−log IC50) and HillSlope value.
On the technique in general: ATP-based viability assays read luminescence as a measure of living cells.

For assay [2], the target named is T2, NIH/3T3 cells overexpressing FGFR3 V555M-TACC3 fusion protein (Homo sapiens, UniProt P22607, V555M, cells depend on it).
T2 construct: fused on or other part: Q9Y6A5 (Transforming acidic coiled-coil-containing protein 3)
T2 sequence (P22607 whole entry V555M, the tested form may be a part): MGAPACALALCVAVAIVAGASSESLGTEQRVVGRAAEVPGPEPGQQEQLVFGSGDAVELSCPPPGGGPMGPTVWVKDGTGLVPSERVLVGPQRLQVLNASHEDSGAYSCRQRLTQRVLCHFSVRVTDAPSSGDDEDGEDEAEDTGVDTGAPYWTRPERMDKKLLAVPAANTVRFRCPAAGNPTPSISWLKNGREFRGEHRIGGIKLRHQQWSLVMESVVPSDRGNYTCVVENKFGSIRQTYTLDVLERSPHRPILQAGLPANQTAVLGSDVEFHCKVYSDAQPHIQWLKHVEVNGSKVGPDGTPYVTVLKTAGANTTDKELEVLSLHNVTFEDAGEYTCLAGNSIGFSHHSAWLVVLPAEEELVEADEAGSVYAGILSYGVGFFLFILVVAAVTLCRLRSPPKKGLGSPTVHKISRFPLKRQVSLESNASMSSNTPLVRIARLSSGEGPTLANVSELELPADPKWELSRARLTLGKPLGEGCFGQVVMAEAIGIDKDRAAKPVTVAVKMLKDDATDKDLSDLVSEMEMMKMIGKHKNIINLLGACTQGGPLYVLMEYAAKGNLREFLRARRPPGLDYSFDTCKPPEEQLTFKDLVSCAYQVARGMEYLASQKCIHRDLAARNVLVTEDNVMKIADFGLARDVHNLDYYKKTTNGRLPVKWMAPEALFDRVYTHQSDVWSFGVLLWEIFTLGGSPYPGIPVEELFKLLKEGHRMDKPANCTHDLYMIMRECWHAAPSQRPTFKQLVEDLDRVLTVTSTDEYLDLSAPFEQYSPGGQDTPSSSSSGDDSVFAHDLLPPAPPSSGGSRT
As to the kind of experiment: NIH/3T3 FGFR3 V555M-TACC3 cell proliferation assay. Format: cell-based. The note with it: 72-hr incubation, CellTiter Glo; read-out: NIH/3T3 FGFR3 V555M-TACC3 CTG (IC50). As for the experimental part:
NIH/3T3 FGFR3 V555M-TACC3 Cell Proliferation Assay
as §1, with “V555M-TACC3” for “WT-TACC3”

T1 sequence (P22607 whole entry, change not shown, the tested form may be a part): as the sequence (P22607 whole entry V555M, the tested form may be a part) above, with M555V counted along it

Consider `COCC(Nc1c(-c2nc3ccc(OC)cc3[nH]2)c(=O)[nH]c2cn(C)nc12)c1ncccn1` (single isomer, unassigned) [Compound 12, (S*)-7-((2-methoxy-1-(pyrimidin-2-yl)ethyl)amino)-6-(6-methoxy-1H-benzo[d]imidazol-2-yl)-2-methyl-2H-pyrazolo[4,3-b]pyridin-5(4H)-one], for which the GI50 in assay [1] came out at 106 nM; in assay [2] it was 109 nM.

For `CCC(Nc1c(-c2nc3ccc(OC)cc3[nH]2)c(=O)[nH]c2cn(C)nc12)c1ncccn1` (single isomer, unassigned) [Compound 17, (R*)-6(6-Methoxy-1H-benzo[d]imidazol-2-yl)-2-methyl-7-((1-(pyrimidin-2-yl)propyl)amino)-2H-pyrazolo[4,3-b]pyridin-5(4H)-one], the GI50 is 27.6 nM in assay [1] and 23.9 nM in assay [2].

With `COc1cc2[nH]c(-c3c(NC(c4ncccn4)C(C)C)c4nn(C)cc4[nH]c3=O)nc2cn1` (single isomer, unassigned) [Compound 18, (S*)-6-(6-methoxy-1H-imidazo[4,5-c]pyridin-2-yl)-2-methyl-7-((2-methyl-1-(pyrimidin-2-yl)propyl)amino)-2H-pyrazolo[4,3-b]pyridin-5(4H)-one], the GI50 in assay [1] was determined as 71.9 nM; in assay [2] it was 51.5 nM.

For `COc1cnc2nc(-c3c(NC(c4ncccn4)C(C)C)c4nn(C)cc4[nH]c3=O)[nH]c2c1` (single isomer, unassigned) [Compound 40, (S*)-6-(6-methoxy-1H-imidazo[4,5-b]pyridin-2-yl)-2-methyl-7-((2-methyl-1-(pyrimidin-2-yl)propyl)amino)-2,4-dihydro-5H-pyrazolo[4,3-b]pyridin-5-one], the results for the GI50 in assay [1] and in assay [2] were 81 nM and 78.5 nM, respectively.

For the molecule `CCC(Nc1c(-c2nc3cc(OC)c(OC)cc3[nH]2)c(=O)[nH]c2cn(C)nc12)c1ncccn1` (single isomer, unassigned) [Compound 42, (S*)-6-(5,6-dimethoxy-1H-benzo[d]imidazol-2-yl)-2-methyl-7-((1-(pyrimidin-2-yl)propyl)amino)-2H-pyrazolo[4,3-b]pyridin-5(4H)-one], the GI50 in assay [2] was determined as 18.2 nM.

Take `CCC(Nc1c(-c2nc3cc(OC)c(OC)cc3[nH]2)c(=O)[nH]c2cn(CC)nc12)c1ncccn1` (single isomer, unassigned) [Compound 44, (S*)-6-(5,6-dimethoxy-1H-benzo[d]imidazol-2-yl)-2-ethyl-7-((1-(pyrimidin-2-yl)propyl)amino)-2H-pyrazolo[4,3-b]pyridin-5(4H)-one]: the GI50 in assay [1] is 31.7 nM; in assay [2] it was 51.6 nM.

For the molecule `COc1cc2nc(-c3c(NC(c4ncccn4)C4CC4)c4nn(C)cc4[nH]c3=O)[nH]c2cc1OC` (single isomer, unassigned) [Compound 46, (S*)-7-((cyclopropyl(pyrimidin-2-yl)methyl)amino)-6-(5,6-dimethoxy-1H-benzo[d]imidazol-2-yl)-2-methyl-2H-pyrazolo[4,3-b]pyridin-5(4H)-one], the results for the GI50 in assay [1] and in assay [2] were 22.7 nM and 27.6 nM, respectively.

As for `CC(C)[C@H](Nc1c(-c2nc3ncc(N(C)C)cc3[nH]2)c(=O)[nH]c2cn(C)nc12)c1ncccn1` (stereo in doubt) [Compound 23, (S*)-6-(6-(dimethylamino)-1H-imidazo[4,5-b]pyridin-2-yl)-2-methyl-7-((2-methyl-1-(pyrimidin-2-yl)propyl)amino)-2H-pyrazolo[4,3-b]pyridin-5(4H)-one 0.14 formate], the GI50 in assay [1] stood at 58 nM; in assay [2], 37.3 nM.

`COc1cc(F)c2nc(-c3c(N[C@@H](C)c4ncccn4)c4nn(C)cc4[nH]c3=O)[nH]c2c1` [Compound 2, (S)-6-(4-fluoro-6-methoxy-1H-benzo[d]imidazol-2-yl)-2-methyl-7-((1-(pyrimidin-2-yl)-ethyl)amino)-2H-pyrazolo[4,3-b]pyridin-5(4H)-one]: the GI50 in assay [1] amounted to 18 nM; in assay [2], 16.1 nM.

Regarding `COc1cnc2nc(-c3c(N[C@@H](C)c4ncccn4)c4nn(C)cc4[nH]c3=O)[nH]c2c1` [Compound 3, (S)-6-(6-methoxy-1H-imidazo[4,5-b]pyridin-2-yl)-2-methyl-7-((1-(pyrimidin-2-yl)ethyl)amino)-2H-pyrazolo[4,3-b]pyridin-5(4H)-one], the GI50 in assay [1] was determined as 23.4 nM; in assay [2] it was 32.6 nM.

For the molecule `CCn1cc2[nH]c(=O)c(-c3nc4ccc(OC)cc4[nH]3)c(N[C@@H](C)c3ncccn3)c2n1` [Compound 4, (S)-2-ethyl-6-(6-methoxy-1H-benzo[d]imidazol-2-yl)-7-((1-(pyrimidin-2-yl)ethyl)amino)-2H-pyrazolo[4,3-b]pyridin-5(4H)-one], the results for the GI50 in assay [1] and in assay [2] were 21.9 nM and 31.8 nM, respectively.

For `CCOc1cc2[nH]c(-c3c(N[C@@H](C)c4ncccn4)c4nn(C)cc4[nH]c3=O)nc2cc1OC` [Compound 7, (S)-6-(6-ethoxy-5-methoxy-1H-benzo[d]imidazol-2-yl)-2-methyl-7-((1-(pyrimidin-2-yl)ethyl)amino)-2,4-dihydro-5H-pyrazolo[4,3-b]pyridin-5-one], the GI50 was determined as 6.03 nM in assay [1] and 6.37 nM in assay [2].

Regarding `CCOc1cc2[nH]c(-c3c(N[C@@H](C)c4ncccn4)c4nn(CC)cc4[nH]c3=O)nc2cc1OC` [Compound 8, (S)-6-(6-ethoxy-5-methoxy-1H-benzo[d]imidazol-2-yl)-2-ethyl-7-((1-(pyrimidin-2-yl)ethyl)amino)-2H-pyrazolo[4,3-b]pyridin-5(4H)-one], the GI50 turned out to be 19.1 nM in assay [1] and 23 nM in assay [2].

As for `CC[C@H](Nc1c(-c2nc3cnc(N(C)C)cc3[nH]2)c(=O)[nH]c2cn(C)nc12)c1ncccn1` [Compound 22, (S)-6-(6-(dimethylamino)-1H-imidazo[4,5-c]pyridin-2-yl)-2-methyl-7-((1-(pyrimidin-2-yl)propyl)amino)-2H-pyrazolo[4,3-b]pyridin-5(4H)-one], the GI50 in assay [1] was determined as 24.4 nM; in assay [2] it was 24.6 nM.

In the case of `CCn1cc2[nH]c(=O)c(-c3nc4c(OC)cc(OC)cc4[nH]3)c(N[C@@H](C)c3ncccn3)c2n1` [Compound 31, (S)-6-(4,6-dimethoxy-1H-benzo[d]imidazol-2-yl)-2-ethyl-7-((1-(pyrimidin-2-yl)ethyl)amino)-2H-pyrazolo[4,3-b]pyridin-5(4H)-one], the GI50 in assay [2] is 64.5 nM.

In the case of `CCn1cc2[nH]c(=O)c(-c3nc4cc(OC)c(OCCOC)cc4[nH]3)c(N[C@@H](C)c3ncccn3)c2n1` [Compound 38, (S)-2-ethyl-6-(5-methoxy-6-(2-methoxyethoxy)-1H-benzo[d]imidazol-2-yl)-7-((1-(pyrimidin-2-yl)ethyl)amino)-2H-pyrazolo[4,3-b]pyridin-5(4H)-one], in assay [2], the GI50 stood at 37.3 nM.

`CCn1cc2[nH]c(=O)c(-c3nc4cc(OC)c(OC)cc4[nH]3)c(N[C@@H](C)c3ccccn3)c2n1` [Compound 51, (S)-6-(5,6-dimethoxy-1H-benzo[d]imidazol-2-yl)-2-ethyl-7-((1-(pyridin-2-yl)ethyl)amino)-2,4-dihydro-5H-pyrazolo[4,3-b]pyridin-5-one]: the GI50 in assay [2] is 31.1 nM.

In the case of “(S)-6-(5,6-Dimethoxy-1H-benzo[d]imidazol-2-yl)-2-ethyl-7-((1-(pyrimidin-2-yl)ethyl)-amino)-2H-pyrazolo[4,3-b]pyridin-5(4H)-one [Compound 6]”, the GI50 in assay [2] was 29.6 nM.
